The test addresses Histamine H2 receptor (Cavia porcellus, UniProt P47747). As to the kind of experiment: Histamine H2 receptor antagonism on the right atrium of the guinea pig. The class given is functional, tissue-based, Cardiac atrium. Particulars: read-out: pA2 (converted).
Histamine H2 receptor, sequence (P47747 whole entry): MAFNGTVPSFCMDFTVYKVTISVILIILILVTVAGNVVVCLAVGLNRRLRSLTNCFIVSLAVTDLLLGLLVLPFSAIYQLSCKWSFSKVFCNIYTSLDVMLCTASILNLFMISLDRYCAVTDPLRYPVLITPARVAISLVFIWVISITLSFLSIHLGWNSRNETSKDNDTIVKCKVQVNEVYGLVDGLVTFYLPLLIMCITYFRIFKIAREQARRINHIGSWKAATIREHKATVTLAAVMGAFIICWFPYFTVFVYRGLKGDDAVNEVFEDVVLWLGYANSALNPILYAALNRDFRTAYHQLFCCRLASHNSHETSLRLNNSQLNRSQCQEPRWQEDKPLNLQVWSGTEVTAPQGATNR
As to `CC/N=C/Nc1ccc(-c2c[nH]cn2)cc1`, the Kb is 42.7 nM.
Then `CC(C)CN/C=N/c1ccc(-c2c[nH]cn2)cc1`, with 5.25 nM; and `CCC(C)(C)N/C=N/c1ccc(-c2c[nH]cn2)cc1`, with 7.59 nM.
Then `CCCCN/C=N/c1ccc(-c2c[nH]cn2)cc1`, with 11.2 nM; and `CCC(CC)N/C=N/c1ccc(-c2c[nH]cn2)cc1`, with 31.6 nM.
Take `CC(C)/N=C/Nc1ccc(-c2c[nH]cn2)cc1`: the Kb was 28.2 nM.
As for `CN/C=N/c1ccc(-c2c[nH]cn2)cc1`, the Kb was 1200 nM.
With `CCC(C)N/C=N/c1ccc(-c2c[nH]cn2)cc1` (centres undefined), the Kb was 14.1 nM.
For the compound `CC(C)(C)/N=C/Nc1ccc(-c2c[nH]cn2)cc1`, the Kb is 11.2 nM.

The values above are taken from ChEMBL document CHEMBL1125709, “Substituent effect on the stereochemistry of H2-receptor antagonists of the phenylformamidine series. A conformation-dependent mode of interaction with the H2 receptor” (J Med Chem, 1991).
